Assay results published in patent US5114918A, “Endothelin antagonistic cyclic pentapeptides” (Banyu Pharmaceutical Co., Ltd., priority 1989, dated 1992).
Numbered stars: 1 amine (or outer) side, 2 acyl side, 3 side chain; on linkers, the order of the positions; unused ones are H or OH. Square brackets hold non-standard residues; d marks the D form. Peptide text beside a SMILES is read from it. * marks the point of attachment. X2 = CNC(=O)Cn1cc(C[C@@H](N[*:1])C(=O)[*:2])c2ccccc21; X6 = COC(=O)Cn1cc(C[C@@H](N[*:1])C(=O)[*:2])c2ccccc21; X3 = NC(=O)Cn1cc(C[C@@H](N[*:1])C(=O)[*:2])c2ccccc21; Gly(N-CH2CH2-imidazol-4-yl) = O=C(O)CNCCc1c[nH]cn1; X4 = O=C1Nc2ccccc2C1C[C@@H](N[*:1])C(=O)[*:2]; dGly(2-thienyl) = N[C@@H](C(=O)O)c1cccs1; X1 = CC[C@](N[*:1])(C(=O)[*:2])c1cccs1; X5 = O=C([C@H](N[*:1])C1=CCC=CC1)[*:2]; dGly(cPent) = N[C@@H](C(=O)O)C1CCCC1; X7 = O=C([C@H](N[*:1])c1ccco1)[*:2]; Hyp = O=C(O)[C@@H]1C[C@@H](O)CN1; Gly(N-cPent) = O=C(O)CNC1CCCC1; NMeL = CN[C@@H](CC(C)C)C(=O)O; NMeM = CN[C@@H](CCSC)C(=O)O; N(iPr)Gly = CC(C)NCC(=O)O; NMeA = CN[C@@H](C)C(=O)O; Thz = O=C(O)[C@@H]1CSCN1; Boc = CC(C)(C)OC(=O)*; βAla = NCCC(=O)O; Sar = CNCC(=O)O; Moc = COC(=O)*

Biological target: T1, endothelin receptor (membrane of smooth muscle tissue of porcine aorta) (Sus scrofa, UniProt Q29010)
T1 construct: from tissue; host or cells: smooth muscle tissue of porcine aorta (membrane fraction)
T1 sequence (Q29010 21-427): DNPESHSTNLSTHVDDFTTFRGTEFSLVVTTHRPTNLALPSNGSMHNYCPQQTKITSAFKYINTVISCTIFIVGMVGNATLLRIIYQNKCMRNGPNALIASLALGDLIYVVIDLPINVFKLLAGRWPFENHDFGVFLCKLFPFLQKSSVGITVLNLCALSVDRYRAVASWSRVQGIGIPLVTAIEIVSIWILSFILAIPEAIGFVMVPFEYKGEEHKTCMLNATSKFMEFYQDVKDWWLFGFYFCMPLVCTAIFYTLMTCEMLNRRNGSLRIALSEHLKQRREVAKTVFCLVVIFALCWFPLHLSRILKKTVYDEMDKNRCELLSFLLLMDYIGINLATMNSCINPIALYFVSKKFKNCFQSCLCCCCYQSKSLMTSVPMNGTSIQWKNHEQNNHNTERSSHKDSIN
Experiment: Endothelin binding inhibition test (125I-endothelin-1, porcine aorta smooth muscle membrane)
Conditions: 1.1 μM of the test compound, porcine aorta smooth muscle membrane, 25° C, 4 hours; for inhibition at 1.1 µM: read-out: 125I-endothelin-1 binding inhibition, Inhibition (%)
Procedure: Endothelin binding inhibition test
The smooth muscle tissue of porcine aorta was homogenized in a buffer solution of 10 mM MOPS, pH 7.4, at 4° C. by a polytron. To the homogenate, sucrose was added to a concentration of 20%, and the mixture was centrifuged at 1,000×g for 15 minutes, and the supernatant was further centrifuged at 10,000×g for 15 minutes. The supernatant thereof was further centrifuged at 90,000×g for 40 minutes. The membrane precipitate thereby obtained was suspended in a buffer solution of 5 mM HEPES/Tris, pH 7.4, at a concentration of 25 mg/ml.
Then, 16 μl of this membrane suspension was added to 340 μl of 50 mM Tris/HCl buffer, pH 7.4, containing 10 μM calcium chloride, 10 μM magnesium chloride, 0.1 mM PMSF, 1 μM pepstatin A, 2 μM leupeptin, 1 mM 1,10-phenanthroline and 0.1% bovine serum albumin. To this suspension, 4 μl of (A) endothelin-1 (for nonspecific binding: 0.2 μM as the final concentration), (B) buffer solution A (for total control binding), or (C) a test compound (1.1 μM as the final concentration), was added. Further, to each suspension, 40 μl of ^125 I-endothelin-1 (12000-18000 cpm) was added. These mixtures were incubated at 25° C for 4 hours, then subjected to filtration on a glass filter GF/C and then washed with 5 mM HEPES/Tris, pH 7.4, containing 0.3% bovine serum albumin. Then, the radioactivity trapped by the glass filter was measured, and the ^125 I-endothelin-1 binding inhibition D (%) at 1.1 μM of the test compound was determined by the following equation. [formula] Each test was performed in triplicate.

Compound | inhibition at 1.1 µM | 125I-endothelin-1 binding inhibition, Inhibition (%)
CC(C)C[C@@H]1NC(=O)[C@@H](C(C)C)NC(=O)CCNC(=O)[C@@H](CC(=O)O)NC(=O)[C@@H](Cc2c[nH]c3ccccc23)NC1=O [Example 66, cyclo(-DTro-DAsp-β-Ala-DVal-Leu-)] (cyclo(L[dW][dD][βAla][dV])) | 38% | –
CC(C)C[C@@H]1NC(=O)[C@@H](c2cccs2)NC(=O)[C@@H]2CCCN2C(=O)[C@@H](CC(=O)O)NC(=O)[C@@H](Cc2c[nH]c3ccccc23)NC1=O [Example 67, cyclo(-DTrp-DAsp-Pro-DThg-Leu-)] (cyclo(L[dW][dD]P[dGly(2-thienyl)])) | 82% | –
CC(C)C[C@@H]1NC(=O)[C@@H](C(C)C)NC(=O)[C@@H]2CSCN2C(=O)[C@@H](CC(=O)O)NC(=O)[C@@H](Cc2c[nH]c3ccccc23)NC1=O [Example 68, cyclo(-DTrp-DAsp-Thz-DVal-Leu-)] (cyclo(L[dW][dD][Thz][dV])) | 86% | –
CC(C)C[C@H]1C(=O)N[C@H](Cc2c[nH]c3ccccc23)C(=O)N[C@H](CC(=O)O)C(=O)N2CCC[C@H]2C(=O)N[C@H](C(C)C)C(=O)N1C [Example 69, cyclo(-DTrp-DAsp-Pro-DVal-MeLeu-)] (cyclo([NMeL][dW][dD]P[dV])) | 85% | –
CSCC[C@H]1C(=O)N[C@H](C(C)C)C(=O)N[C@@H](CC(C)C)C(=O)N[C@H](Cc2c[nH]c3ccccc23)C(=O)N[C@H](CC(=O)O)C(=O)N1C [Example 70, cyclo(-DTrp-DAsp-MeMet-DVal-Leu-)] (cyclo(L[dW][dD][NMeM][dV])) | 85% | –
CC(C)C[C@@H]1NC(=O)[C@@H](c2cccs2)NC(=O)CN(C)C(=O)[C@@H](CC(=O)O)NC(=O)[C@@H](Cc2c[nH]c3ccccc23)NC1=O [Example 72, cyclo(-DTrp-DAsp-Sar-DThg-Leu-)] (cyclo(L[dW][dD][Sar][dGly(2-thienyl)])) | 79% | –
CC(C)C[C@@H]1NC(=O)[C@@H](c2cccs2)NC(=O)CN(C2CCCC2)C(=O)[C@@H](CC(=O)O)NC(=O)[C@@H](Cc2c[nH]c3ccccc23)NC1=O [Example 73, cyclo(-DTrp-DAsp-CpGly-DThg-Leu-)] (cyclo(L[dW][dD][Gly(N-cPent)][dGly(2-thienyl)])) | 85% | –
CC(C)C[C@@H]1NC(=O)[C@@H](C2=CCC=CC2)NC(=O)[C@@H]2CCCN2C(=O)[C@@H](CC(=O)O)NC(=O)[C@@H](Cc2c[nH]c3ccccc23)NC1=O [Example 74, cyclo(-DTrp-DAsp-Pro-DDpg-Leu-)] (cyclo(L[dW][dD]P[X5])) | 89% | –
CC(C)C[C@@H]1NC(=O)[C@@H](c2cccs2)NC(=O)CN(C(C)C)C(=O)[C@@H](CC(=O)O)NC(=O)[C@@H](Cc2c[nH]c3ccccc23)NC1=O [Example 78, cyclo(-DTrp-DAsp-^i PrGly-DThg-Leu-)] (cyclo(L[dW][dD][N(iPr)Gly][dGly(2-thienyl)])) | 85% | –
CC(C)C[C@@H]1NC(=O)[C@@H](c2cccs2)NC(=O)[C@@H]2C[C@@H](O)CN2C(=O)[C@@H](CC(=O)O)NC(=O)[C@@H](Cc2c[nH]c3ccccc23)NC1=O [Example 79, cyclo(-DTrp-DAsp-trans-Hyp-DThg-Leu-)] (cyclo([Hyp][dGly(2-thienyl)]L[dW][dD])) | 88% | –
CC(C)C[C@@H]1NC(=O)[C@@H](c2ccco2)NC(=O)[C@@H]2CCCN2C(=O)[C@@H](CC(=O)O)NC(=O)[C@@H](Cc2c[nH]c3ccccc23)NC1=O [Example 80, cyclo(-DTrp-DAsp-Pro-DFug-Leu-)] (cyclo(L[dW][dD]P[X7])) | 83% | –
CC(C)C[C@@H]1NC(=O)[C@@H](C2CCCC2)NC(=O)[C@@H]2CCCN2C(=O)[C@@H](CC(=O)O)NC(=O)[C@@H](Cc2c[nH]c3ccccc23)NC1=O [Example 81, cyclo(-DTrp-DAsp-Pro-DCpg-Leu-)] (cyclo(L[dW][dD]P[dGly(cPent)])) | 86% | –
CC[C@]1(c2cccs2)NC(=O)[C@@H]2CCCN2C(=O)[C@@H](CC(=O)O)NC(=O)[C@@H](Cc2c[nH]c3ccccc23)NC(=O)[C@H](CC(C)C)NC1=O [Example 82, cyclo(-DTrp-DAsp-Pro-DEtg-Leu-)] (cyclo(L[dW][dD]P[X1])) | 81% | –
CC(C)C[C@@H]1NC(=O)[C@@H](c2cccs2)NC(=O)CN(CC(=O)O)C(=O)[C@@H](CC(=O)O)NC(=O)[C@@H](Cc2c[nH]c3ccccc23)NC1=O [Example 83, cyclo(-DTrp-DAsp-CmGly-DThg-Leu-)] | 82% | –
CC(C)[C@H]1NC(=O)[C@@H]2CCCN2C(=O)[C@@H](CC(=O)O)NC(=O)[C@@H](Cc2c[nH]c3ccccc23)NC(=O)[C@H](Cc2c[nH]cn2)NC1=O [Example 84, cyclo(-DTrp-DAsp-Pro-DVal-His)] (cyclo(H[dW][dD]P[dV])) | 43% | –
CC(C)C[C@@H]1NC(=O)[C@@H](C(C)C)NC(=O)CN(CCc2c[nH]cn2)C(=O)[C@@H](CC(=O)O)NC(=O)[C@@H](Cc2c[nH]c3ccccc23)NC1=O [Example 85, cyclo(-DTrp-DAsp-IeGly-DVal-Leu-)] (cyclo(L[dW][dD][Gly(N-CH2CH2-imidazol-4-yl)][dV])) | 82% | –

Compound | inhibition at 1.1 µM | 125I-endothelin-1 binding inhibition, Inhibition (%)
COC(=O)n1cc(C[C@H]2NC(=O)[C@H](CC(C)C)NC(=O)[C@@H](C(C)C)NC(=O)[C@@H]3CCCN3C(=O)[C@@H](CC(=O)O)NC2=O)c2ccccc21 [Example 86, cyclo(-DTrp(COOCH3)-DAsp-Pro-DVal-Leu-)] (cyclo(L[dW](Moc)[dD]P[dV])) | 90% | –
CC(C)C[C@@H]1NC(=O)[C@@H](C(C)C)NC(=O)[C@@H]2CCCN2C(=O)[C@@H](CC(=O)O)NC(=O)[C@@H](Cc2cn(C(=O)OC(C)(C)C)c3ccccc23)NC1=O [Example 87, cyclo(-DTrp(COO^t Bu)-DAsp-Pro-DVal-leu-)] (cyclo(L[dW](Boc)[dD]P[dV])) | 34% | –
CC(C)C[C@@H]1NC(=O)[C@@H](C(C)C)NC(=O)[C@@H]2CCCN2C(=O)[C@@H](CC(=O)O)NC(=O)[C@@H](CC2C(=O)Nc3ccccc32)NC1=O (stereo partly drawn) [Example 88, cyclo(-DTrp(O)-Dsp-Pro-DVal-Leu-)] (cyclo(L[X4][dD]P[dV])) | 78% | –
CC(C)C[C@@H]1NC(=O)[C@@H](C(C)C)NC(=O)[C@H](C)N(C)C(=O)[C@@H](CC(=O)O)NC(=O)[C@@H](CC2C(=O)Nc3ccccc32)NC1=O (stereo partly drawn) [Example 89, cyclo(-DTrp(O)-DAsp-MeAla-DVal-Leu-)] (cyclo(L[X4][dD][NMeA][dV])) | 67% | –
COC(=O)Cn1cc(C[C@H]2NC(=O)[C@H](CC(C)C)NC(=O)[C@@H](C(C)C)NC(=O)[C@@H]3CCCN3C(=O)[C@@H](CC(=O)O)NC2=O)c2ccccc21 [Example 90, cyclo(-DTrp(CH2 COOCH3)-DAsp-Pro-DVal-Leu-)] (cyclo(L[X6][dD]P[dV])) | 35% | –
CC(C)C[C@@H]1NC(=O)[C@@H](C(C)C)NC(=O)[C@@H]2CCCN2C(=O)[C@@H](CC(=O)O)NC(=O)[C@@H](Cc2cn(CC(N)=O)c3ccccc23)NC1=O [Example 91, cyclo(-DTrp(CH2 CONH2)-DAsp-Pro-DVal-Leu-)] (cyclo(L[X3][dD]P[dV])) | 23% | –
CNC(=O)Cn1cc(C[C@H]2NC(=O)[C@H](CC(C)C)NC(=O)[C@@H](C(C)C)NC(=O)[C@@H]3CCCN3C(=O)[C@@H](CC(=O)O)NC2=O)c2ccccc21 [Example 92, cyclo(-DTrp(CH2 CONHCH3)-DAsp-Pro-DVal-Leu-)] (cyclo(L[X2][dD]P[dV])) | 28% | –
cyclo(-DTrp(CHO)-DAsp-Met(O)-DVal-Leu-) [Example 77] | – | 78%
cyclo(-DTrp(CHO)-DAsp-Pro-DaIle-Leu-) [Example 53] | – | 89%
cyclo(-DTrp(CHO)-DCys(O3 Na)-Pro-DThg-Leu-) [Example 75] | – | 87%
cyclo(-DTrp(CHO)-DGlu-Ala-DaIle-Leu-) [Example 52] | – | 64%
cyclo(-DTrp-DAsp-Cys(O3 Na)-DVal-Leu-) [Example 24] | – | 78%
cyclo(-DTrp-DAsp-Pro-DtertLeu-Leu-) [Example 71] | – | 80%
cyclo(-DTrp-DCys(O3 Na)-Glu-DVal-Leu-) [Example 49] | – | 67%
cyclo(-DTrp-DCys(O3 Na)-Pro-DThg-Leu-) [Example 76] | – | 84%
cyclo(-DTrp-DCys(O3 Na)-Pro-DaIle-Leu-) [Example 43] | – | 85%
